According to patent publication US20040143025A1, “Carbon monoxide generating compunds for treatment of vascular, inflammatory and immune disorders” (priority 2002, published 2004):

How the values were obtained:
[1] = system: rat liver; set-up: species or system Sprague Dawley (SD) rats; details: 2 h reperfusion, inhibitor given together with CO 300 ppm; for bile production / portal vein resistance: compared with CO alone
Description: Animals. Male Sprague Dawley (SD) rats weighing between 300-350 g (Harlan Sprague Dawley, Indianapolis, Ind.) were used. Animals were fed standard rodent chow and water and libitum and cared according to guidelines approved by the American Association of Laboratory Animal Care.
Isolated perfusion liver apparatus. An isolated perfusion liver apparatus was used, as described in Amersi et al., supra, and Maulik et al., Circulation 94:398-406 (1996). In brief, syngeneic rat blood, obtained for each experiment from four donor animals, was diluted to a hematocrit of 15% with Krebs Ringer Bicarbonate Buffer (mM: NaCl 118, KH2POF 1, MgSO4 0.9, CaCl2 2.5, dextrose 11.1, and NaHCO2 25), and maintained at pH of 7.4. The perfusate was pumped from a heated reservoir that warmed the perfusate to 37° C. through silastic tubing oxygenator connected to a flow meter that measured portal vein blood flow (Cole Palmer Instruments, Chicago, Ill.). Portal pressure was kept constant via a pressure monometer connected to a T fitting in the portal vein canula. […] During the experiment, pH, temperature and oxygenation were kept constant.
Ex vivo cold ischemia model. SD rats underwent isoflourane anesthesia and systemic heparinization. […] The livers were then stored for 24 h at 4° C. in UW solution, followed by ex-vivo reperfusion for 1-2 h on an isolated perfusion liver apparatus. Portal vein blood flow, pressure, and bile production were recorded every 30 min. Blood samples were collected at 30 min intervals and serum glutamic oxaloacetic transaminase (sGOT) levels were measured using an autoanalyzer from ANTECH Diagnostics (Irvine, Calif.). At the conclusion of experiment, a portion of the liver was snap frozen for mRNA extraction/Western blot analyses; the remaining samples were fixed in formalin for H&E staining.
The role of CO—HO-1 pathway in hepatic I/R injury was studied in five major treatment groups (n=4.8 rats/group). In Group 1, the extent of I/R injury was contrasted between livers perfused ex-vivo with blood saturated with CO (300 parts per million [ppm]; 0.03% balanced air) vs. air alone (21% O2). As NO may enhance HO-1 expression (Brouard et al., supra), we then investigated a link between the two gaseous molecules in Group 2 livers, which were perfused with CO supplemented with 25 mM NG-nitro-L-arginine methyl ester hydrochloride (L-NAME; Sigma Chemicals, St. Louis, Mo.), an inducible NO inhibitor. […] To analyze as to whether exogenous CO can substitute for HO-1 in preventing I/R insult, Group 4 rats were treated 24 h prior to liver procurement with ZnPP)(1.5 mg/kg/i.p; Porphyrin Products, Logan Utah), an HO-1 inhibitor, followed by ex vivo perfusion with CO. […] Brouard et al., supra. Therefore, Group 5 rats were pre-treated 60 min before harvest with p38 MAPK inhibitor, SB203580, a pyridinyl imidazol (25 mg/kg orally; Sigma). In addition, prior to reperfursion with CO, SB203580 (20 μM) was added to the perfusate.

[2] = system: rat liver; experiment: Histologic severity of I/R injury, Banff criteria; set-up: species or system Sprague Dawley (SD) rats; details: CO plus inhibitor, 2 h perfusion; scale 1-4
Description: Histology. Liver specimens were fixed in a 10% buffered formalin solution and embedded in paraffin. Sections were made at 4 μm and stained with H&E. The histologic severity of I/R injury was graded using International Banff Criteria (Int'l Banff Schema Conference Worksheet, The Third Int'l Banff Conference on Allograft Pathology, June 21-25 (1995)). Using these criteria, lobular disarray and ballooning changes are graded from 1-4, where no change is given a score of 1 and severe disarray or ballooning changes are given a score of 4.

[3] = system: HO-1; experiment: HO-1 enzymatic activity in liver homogenates; assay type: biochemical, rat; details: liver after perfusion; ZnPP = 1.5 mg/kg i.p. 24 h before harvest then CO perfusion; CO = CO only
Procedure: HO-1 Enzymatic Activity. Livers were homogenized on ice in a Tris-HCl lysis buffer (pH 7.4) containing 0.5% Triton X-100 and protease inhibitors. Samples were frozen in small aliquots until use. Homogenates (100 μl) were mixed with 0.8 mM NADPH, 0.8 mM glucose-6-phosphate 1.0 unit G-60P dehydrogenase, 1 mM MgCl2 and […] purified rat liver biliverdin reductase at 4° C. The reaction was initiated by the addition of hemin (final concentration 0.25 mM). The reaction mixture was incubated at 37° C. in the dark for 15 min. At the end of incubation period, any insoluble material was removed by centrifugation and supernatants were analyzed for bilirubin concentration. An extinction coefficient of 40 mM^−1 cm^−1 at A 460-530 was used to calculate the amount of bilirubin formed. Controls included naive samples in the absence of the NADPH generating system and all the ingredients of the reaction mixture in the absence of graft homogenates. Biliverdin reductase was purified from rat liver, as described in Browne and Ultrich, Mol. Pharmacol. 32:497-504 (1987).

[4] = system: HO-1; experiment: ELISA for HO-1 protein expression in liver; set-up: species or system rat; details: ZnPP = pretreatment then CO perfusion; CO = CO only
Procedure: ELISA for HO-1 protein expression. Livers were homogenized on ice in a Tris-HCl lysis buffer (pH 7.4) containing 0.5% Triton X-100 and protease inhibitors. Flat-bottom microtiter 96-well plates (Nunc) were coated with 7 μg/ml anti-HO-1 mAb (OSA-111, Stressgen, Canada) in PBS for 18 h at room temperature. Unbound Ab was removed by washing (wash buffer: 0.05% Tween 20 in 50 mM phosphate buffer, pH 7.5) and remaining binding sites were blocked by incubation with a 5% BSA/PBS solution (1 h). Recombinant HO-1 (SPP-730) and tissue homogenate were diluted in assay diluent (0.5% BSA/0.05% Tween 20/PBS) and incubated in anti-HO-1 mAb coated wells for 1 h at room temperature. Subsequently, plates were washed three times with wash buffer and incubated with rabbit anti-HO-1 polyclonal antibody (SPA-895, Stressgen; diluted 1:1000 in assay diluent) for 30 min at room temperature. Bound rabbit IgG was detected with a donkey anti-rabbit (gG-HRP conjugate (711-035-152, Jackson Research Laboratories; diluted 1:8000 in assay diluent). Unbound secondary Ab was removed by washing and bound HRP was detected using 1 mg/ml OPD in substrate buffer (0.1% H2O2, 0.1 M citric acid, 0.2 M Na2HPO4, pH 5.0). The color reaction was stopped with 1 M HCl and the optical density at 490 nm was measured.

[5] = system: Louvain rats immunized with collagen type II; experiment: Rat collagen-arthritis model; assay type: in vivo; set-up: arthritic score / Arthritis Score / X-Ray Score: scale not given here; details: for structural damage by blinded radiographic scores: day 28; for efficacy in comparison with methylene chloride (RB2000): rat collagen arthritis model, arthritic score; for arthritic scores in comparison to methylene chloride treated rats: rat, in vivo
Procedure: To assess the therapeutic potential of methylene chloride as a carbon-monoxide generating compound in this disease model, female Louvain rats weighing between 120 and 150 g were injected intradermally with 0.5 mg native chicken collagen type II solubilized in 0.1M acetic acid and emulsified in incomplete Freund's adjuvant. At the onset of disease (around day 10) animals were divided into three groups. One group was treated daily with vehicle, the second and third groups with 100 mg/kg/day and 500 mg/kg/day methylene chloride (p.o.). Severity of disease was evaluated daily using a quantification method based on standardized levels of swelling and periarticular erythema. Animals were sacrificed on day 28. […] Compared to control animals these differences were statistically significant (p<0.02).
(§1) Iodoform and bromoform were compared with methylene chloride as alternative carbon monoxide generating compounds, using the rat collagen arthritis model described in Example 6 above. Briefly, arthritis was induced in a Lovain strain of rats by immunizing the animals with Collagen Type II in Incomplete Freund's Adjuvant. Digitized radiographs were obtained at the completion of the study on day 28. Pharmacokinetics were also determined and the synovial tissue from the inflamed joints of the treated animals was harvested on Day 16 or Day 28 post-immunization. Disease systems were generally evident by Day 10.

[6] = Blood carboxyhemoglobin after alkyl halide administration; assay type: in vivo; details: 100 mg/kg
Procedure: The ability of the trihalomethanes iodoform and bromoform to act as carbon monoxide generating compounds was assayed in comparison with methylene chloride.

[7] = system: TNF; experiment: Quantitative RT-PCR of cytokine mRNA in collagen-arthritis rats, TNF; assay type: in vivo, rat; details: Day 28
Procedure: as §1
(§2) Carboxyhemoglobin levels peaked within a few hours of administration but normalized within 24 hours without cumulative pharmacokinetic consequences. Messenger RNA (mRNA) from the treated animals was purified and specific mRNA levels for cytokines TNF, IL-6, and IFN-γ were quantitated by Quantitative RT-PCR.

[8] = system: IL-6; experiment: Quantitative RT-PCR of cytokine mRNA in collagen-arthritis rats, IL-6; details: rat, in vivo
Procedure: as §1, §2

[9] = system: IFN-γ; experiment: Quantitative RT-PCR of cytokine mRNA in collagen-arthritis rats, IFN-γ; details: rat, in vivo
Procedure: as §1, §2

[10] = system: Lewis rats; experiment: Experimental autoimmune encephalomyelitis (EAE) model of multiple sclerosis; assay type: in vivo, rat; details: daily oral administration from day 8 post-inoculation; scale 0 to 3
Procedure: Multiple sclerosis is characterized by an autoimmune and inflammatory response directed against myelin sheath and oligodendrocytes, resulting in demyelination in the central nervous system. A well-established animal model of multiple sclerosis, experimental autoimmune encephalomyelitis (EAE), was used to examine the effect of the subject alkyl halides on this autoimmune and inflammatory condition of the central nervous system. Lewis rats were given intradermal footpad injections of 50 μg guinea pig myelin basic protein (MBP) and complete Freund's adjuvant (CFA) to induce experimental allergic encephalomyelitis (EAE). Daily oral administration of vehicle, methylene chloride or iodoform was started on day 8 post-inoculation and continued to the end of the study. Animals were monitored and scored on a 0 (normal) to 3 (complete hindlimb paralysis) scale. Daily mean±SD clinical scores are shown.

Row | Compound | bile production [1] | portal vein resistance [1] | sGOT release [1] [IU/L] | Arthritis Score ([5]; Day 28, dose 250 mg/kg) | X-Ray Score ([5]; Day 28, dose 250 mg/kg) | structural damage by blinded radiographic scores [5] | efficacy in comparison with methylene chloride (RB2000) [5] | arthritic scores in comparison to methylene chloride treated rats [5] | COHb level in comparison with the same amount of methylene chloride [6] | mRNA levels for TNF compared to methylene chloride treated rats [7] | mRNA levels for IL-6 compared to methylene chloride treated rats [8] | mRNA levels for IFN-γ compared to methylene chloride treated rats [9] | other results
1 | COC(=O)[C@@H](N)CCCN=C(N)N[N+](=O)[O-].Cl [L-NAME, NG-nitro-L-arginine methyl ester hydrochloride] | increase in bile production | decrease in portal vein resistance | 191±16 |  |  |  |  |  |  |  |  |  | 
2 | O=C1C(Nc2ccccc2)=CC(=O)c2ncccc21 [LY-83583, 6-anilino-5,8-quinalinedone] | comparable | slightly increased | 186±21 |  |  |  |  |  |  |  |  |  | 
3 | C[S+]([O-])c1ccc(-c2nc(-c3ccncc3)c(-c3ccc(F)cc3)[nH]2)cc1 (centres unmarked) [SB203580] | significantly less bile | significant increase in portal vein resistance | 352±21 |  |  |  |  |  |  |  |  |  | 
4 | C=CC1=C(C)c2cc3[n-]c(cc4[n-]c(cc5nc(cc1n2)C(C)=C5C=C)c(C)c4CCC(=O)O)c(CCC(=O)O)c3C.[Zn+2] [ZnPP] | increased bile production | decreased portal vein resistance | 202±11 |  |  |  |  |  |  |  |  |  | Banff score of I/R injury [2]: 1.5±0.0; HO-1 enzyme activity [3]: 0.95±0.06 nmol of bilirubin/mg/protein/min; HO-1 protein expression in liver samples (ELISA) [4]: 0.85±0.62 ng of HO-1/mg lysate
5 | BrC(Br)Br [bromoform] |  |  |  | 5.5 ± 0.86 | 2.75 ± 0.81 | significantly inhibited structural damage | superior efficacy | significantly lower | higher COHb level | higher | substantially lower | substantially lower | 
6 | IC(I)I [iodoform] |  |  |  | 1.85 ± 0.91 | 0.85 ± 0.45 | significantly inhibited structural damage | superior efficacy | significantly lower | higher COHb level | higher | substantially lower | substantially lower | Arthritis Score ([5]; Day 28, dose 100 mg/kg): 3.62 ± 0.99; X-Ray Score ([5]; Day 28, dose 100 mg/kg): 1.50 ± 0.80; Arthritis Score ([5]; Day 28, dose 175 mg/kg): 3.16 ± 0.99; X-Ray Score ([5]; Day 28, dose 175 mg/kg): 1.90 ± 0.64; clinical score / clinical signs [10]: did not display any clinical signs
